Test results as given in the supplement of paper PMC10307832.

Columns and labels:
Assay in all cases: relative viability (nuclei count vs DMSO), 5 days (fraction); higher = more cells survive
kb NB 142-70 + AZD7762 = compound: C1CSC2=C(C(=O)N1)SC3=C2C=C(C=C3)O [kb NB 142-70] + NC(=O)Nc1cc(-c2cccc(F)c2)sc1C(=O)N[C@H]1CCCNC1 [AZD7762] (partner 0.2 µM)
Outline: (§1)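 Values are medians from duplicate plates. Each reflects relative viability, defined as the nuclei count of treated wells over that of vehicle wells. Lung cancer cell lines in 1536-well plates were pin-tool dosed one day after seeding with one drug alone or with a fixed anchor-drug dose plus five library-drug doses (not always all listed) in √10 steps, then fixed, stained and imaged at 4× after 5 days.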

[1] = compound: NCC(=O)Nc1ccc(-n2nc(C(F)(F)F)cc2-c2ccc3c(ccc4ccccc43)c2)cc1 + COc1cc2c(Oc3ccc(NC(=O)C4(C(=O)Nc5ccc(F)cc5)CC4)cc3F)ccnc2cc1OCCCN1CCOCC1 [Foretinib] (partner 0.25 µM)
Outline: as §1

[2] = compound: C1CSC2=C(C(=O)N1)SC3=C2C=C(C=C3)O [kb NB 142-70] + CC(=O)Nc1cccc(-n2c(=O)n(C3CC3)c(=O)c3c(Nc4ccc(I)cc4F)n(C)c(=O)c(C)c32)c1 [Trametinib] (partner 0.02 µM)
Outline: as §1

Cell Line | relative viability (kb NB 142-70 + AZD7762; first compound 0.1 µM) | relative viability (kb NB 142-70 + AZD7762; first compound 1 µM) | relative viability (kb NB 142-70 + AZD7762; first compound 3.162 µM) | relative viability ([1]; first compound 0.02 µM) | relative viability ([1]; first compound 0.06325 µM) | relative viability ([1]; first compound 0.2 µM) | relative viability ([1]; first compound 0.6325 µM) | relative viability ([1]; first compound 2 µM) | relative viability ([2]; first compound 0.1 µM) | relative viability ([2]; first compound 1 µM) | relative viability ([2]; first compound 3.162 µM)
201T | 0.603 | 0.723 | 0.676 | 1.12 | 1.2 | 1.17 | 1.1 | 1.15 | 0.687 | 0.727 | 0.752
A549 |  |  |  | 0.923 | 0.956 | 0.917 | 1.01 | 0.971 |  |  | 
A-427 | 0.783 | 0.93 | 1.08 |  | 1.2 | 1.1 | 1.11 | 0.959 | 0.841 | 0.764 | 0.726
ABC-1 | 0.936 | 0.927 | 0.758 | 1.29 | 1.15 |  | 0.988 | 1.2 |  |  | 
BEN | 0.727 | 0.623 | 0.531 | 0.635 | 0.602 | 0.561 | 0.681 | 0.657 | 1.02 | 0.99 | 0.892
CAL-12T | 0.548 | 0.718 | 0.704 | 1.28 | 1.29 | 1.15 | 1.14 | 1.12 | 0.341 | 0.39 | 0.241
COR-L23 |  |  |  | 0.982 | 0.912 | 1.13 | 1.04 | 0.973 | 0.558 | 0.588 | 0.32
COR-L 105 |  |  |  | 1.15 | 1.26 | 1.14 | 0.985 | 1.04 | 0.452 | 0.426 | 0.448
Calu-6 |  |  |  | 0.843 | 0.87 | 0.857 | 0.896 | 0.891 |  |  | 
ChaGo-K-1 | 0.896 | 0.873 | 0.888 | 0.866 | 0.956 | 0.847 | 0.937 | 0.77 | 0.883 | 0.875 | 0.876
EBC-1 |  |  |  | 0.0952 | 0.0845 | 0.105 | 0.0991 | 0.0847 |  |  | 
EKVX | 0.739 | 0.704 | 0.684 | 0.905 | 1.05 | 0.602 | 0.77 | 0.626 | 0.357 | 0.378 | 0.296
EMC-BAC-2 | 1.13 | 1.15 | 0.731 | 0.957 | 0.966 | 1.02 | 1.09 | 1.05 | 0.876 | 0.917 | 0.941
EPLC-272H | 0.265 | 0.34 | 0.284 | 0.686 | 0.688 | 0.752 | 0.581 | 0.79 | 0.275 | 0.274 | 0.295
H3255 | 0.86 | 0.925 | 0.999 | 0.823 | 1.04 | 0.858 | 1.11 | 0.89 | 0.585 | 0.602 | 0.593
HARA | 0.292 | 0.393 | 1.07 | 0.976 | 0.991 | 0.889 | 0.961 | 0.974 | 0.464 | 0.726 | 1.02

Cell Line | relative viability (kb NB 142-70 + AZD7762; first compound 0.1 µM) | relative viability (kb NB 142-70 + AZD7762; first compound 1 µM) | relative viability (kb NB 142-70 + AZD7762; first compound 3.162 µM) | relative viability ([1]; first compound 0.02 µM) | relative viability ([1]; first compound 0.06325 µM) | relative viability ([1]; first compound 0.2 µM) | relative viability ([1]; first compound 0.6325 µM) | relative viability ([1]; first compound 2 µM) | relative viability ([2]; first compound 0.1 µM) | relative viability ([2]; first compound 1 µM) | relative viability ([2]; first compound 3.162 µM)
HCC-15 | 1.2 | 1.29 | 1.28 | 1.07 | 1.04 | 1.08 | 1.1 | 1.07 | 0.373 | 0.355 | 0.444
HCC-44 | 0.99 | 1.06 | 1.06 |  |  |  |  |  | 1.06 | 1.06 | 1.1
HCC-78 | 0.616 | 0.629 | 0.684 | 0.551 | 0.565 | 0.52 | 0.577 | 0.621 | 0.683 | 0.823 | 0.838
HCC-366 | 0.277 | 0.572 | 0.734 | 0.918 | 0.911 | 0.984 | 0.924 | 0.992 | 0.321 | 0.274 | 0.232
HCC-827 | 0.233 | 0.195 | 0.255 | 1.1 | 1.09 | 0.98 | 0.991 | 1.08 | 0.539 | 0.53 | 0.395
HOP-62 | 0.691 | 1.1 | 0.764 | 1.19 | 1.16 | 0.966 | 1.01 | 1.04 | 0.401 | 0.427 | 0.545
IA-LM |  |  |  | 1.26 | 1.05 | 1.14 | 1.01 | 1.19 |  |  | 
LC-2-ad | 0.826 | 0.825 | 0.888 | 0.93 | 0.998 | 0.891 | 0.954 | 0.984 | 0.898 | 0.937 | 0.875
LCLC-97TM1 | 0.346 | 0.231 | 0.563 | 0.87 | 0.999 | 0.924 | 0.945 | 0.96 | 0.197 | 0.183 | 0.174
LCLC-103H | 0.766 | 0.782 | 0.894 | 0.703 | 0.71 | 0.938 | 0.754 | 0.736 | 0.672 | 0.654 | 0.803
LK-2 | 0.308 | 0.319 | 0.329 | 0.93 | 1.35 | 1.35 | 1.37 | 1.39 | 0.814 | 0.651 | 0.729
LOU-NH91 | 0.767 | 0.762 | 0.637 | 0.994 | 0.959 | 0.965 | 0.929 | 1.01 | 0.754 | 0.785 | 0.657
LU99A | 0.386 | 0.493 | 0.462 | 0.855 | 0.783 | 0.932 | 0.79 | 0.853 | 0.559 | 0.598 | 0.467
LXF-289 | 1.11 | 1.1 | 1.27 | 0.973 | 0.979 | 0.967 | 0.943 | 0.968 | 0.668 | 0.662 | 0.69
NCI-H23 | 0.376 | 0.291 | 0.275 | 1.05 | 0.998 | 1 | 0.975 | 0.987 | 0.37 | 0.29 | 0.278
NCI-H322M | 0.634 | 0.707 | 0.846 | 1.2 | 0.945 | 0.97 | 0.912 | 1.04 | 0.51 | 0.525 | 0.598
